Patent US20100004333A1, “COMPOSITIONS AND METHODS FOR TREATING CARDIOVASCULAR DISORDERS” (priority 2004, published 2010)

Experiments:
[1] = tested on: New Zealand White rabbits; test: Rabbit aortic balloon-injury model: intimal hyperplasia; assay type: in vivo; details: 9 weeks, FIG. 21; for Protection against balloon injury-induced intimal hyperplasia: 0.02% wt/wt in chow, ABI at end of week three
Procedure: Rabbit aortic balloon-injury model. Four groups of male New Zealand White rabbits (1.8-2.2 kg, Merunga Farm, Coffs Harbour, Australia), matched for body weight and baseline plasma cholesterol, were fed 100 g per day of normal chow±1% probucol, 0.02% DTBP, or 0.02% BP (wt/wt) for up to nine weeks. Aortic balloon-injury (ABI) was carried out at the end of week three, resulting in complete endothelial denudation. Harvesting of aortas was done after a further 6 weeks (n=6 per group). Aortic lesion assessment was carried out at the 3rd pair of lumber arteries in NZW rabbits as described in Circulation 2003, 107:2031-2036. Statistics. Data are expressed as mean±SEM. One-way ANOVA and the student-Newman-Keul's test were used to evaluate differences between groups, with P<0.05 considered significant.
Materials and methods were as described in Examples 6 and 7, with the following addition. DTBP-s and STBP were synthesized as described in Example 10. A total of 48 New Zealand White rabbits (1.8-2.2 kg) were used for this example. Rabbits were fed normal chow (100 g/day) without (Ctrl, n=12) or with 0.02% DTBP (wt/wt, n=6), 0.02% STBP (wt/wt, n=7), 0.02% DTBP-s (wt/wt, n=11) or 0.1% DTBP-s (wt/wt, n=7) for 9 weeks. Aortic balloon-injury was carried out at the end of week three.

[2] = tested on: Heme oxygenase-1 mRNA; test: HO-1 mRNA by real time RT-PCR in cultured rabbit aortic smooth muscle cells; assay type: cell-based; details: α-tocopherol 50 μM, 24 hours; FIG. 20A
Procedure: (§1) Materials and methods were principally as described in Examples 6 and 7. Vitamin E (α-tocopherol for cellular studies, α-tocopheryl acetate for in vivo studies) was obtained from Sigma (St. Louis, Mo.). Heme oxygenase-1 mRNA was assessed by real time RT-PCR in rabbit aortic smooth muscle cells cultured for 24 hours in the presence of vehicle (control), probucol (50 μM) or α-tocopherol (50 μM) as described in (Circulation 2004; 110:1855-1860). Re-endothelialization was assessed by Evans blue staining (Circulation 2003; 107:2031-2036) 3 weeks after injury. Intima-to-media ratio of vessels from control rabbits and animals treated with probucol or α-tocopheryl acetate (n=6 per group) was also determined 3 weeks after aortic balloon injury, using 5 serial sections per aortic segment, 100 μm apart.

[3] = tested on: rabbits; test: Rabbit aortic balloon injury, 3 weeks: re-endothelialization (Evans blue) and intima-to-media ratio, vitamin E; assay type: in vivo; details: α-tocopheryl acetate
Procedure: as §1

## CC(C)(C)c1cc(SSc2cc(C(C)(C)C)c(OC(=O)CCC(=O)O)c(C(C)(C)C)c2)cc(C(C)(C)C)c1O [DTBP-s, 4-(2,6-di-t-butyl-4-((3,5-di-t-butyl-4-hydroxyphenyl)disulfanyl)phenoxy)-4-oxobutanoic acid]
[1]
  Protection against balloon injury-induced intimal hyperplasia: significant protection, albeit less effectively
[1]; 0.1% wt/wt DTBP-s, P<0.05 versus 0.02% DTBP-s
  Protection against intimal hyperplasia: 0.02% DTBP-s compared with 0.1% DTBP-s: less effectively as that seen with STBP (0.02%, to wt/wt) and DTBP-s (0.1%, wt/wt)

## CC(C)(C)c1cc(S[Se]c2cc(C(C)(C)C)c(O)c(C(C)(C)C)c2)cc(C(C)(C)C)c1O [STBP, 2,6-di-t-butyl-4-(3,5-di-t-butyl-4-hydroxyphenylselanylthio)phenol]
[1]
  Protection against balloon injury-induced intimal hyperplasia: protected to a comparable extent

## Cc1c(C)c2c(c(C)c1O)CC[C@@](C)(CCC[C@H](C)CCC[C@H](C)CCCC(C)C)O2 [vitamin E, α-tocopherol]
[2]
  Induction of HO-1 (mRNA) in vascular smooth muscle cells: failed to induce HO-1
[3]; 3 weeks after aortic balloon injury, FIG. 20C
  Intimal hyperplasia (intima-to-media ratio): failed to inhibit intimal hyperplasia
[3]; 3 weeks after injury, FIG. 20B
  Re-endothelialization (Evans blue): did not promote re-endothelialization
